In US10004761B2, “Malodor neutralizing composition” (priority 2016, dated 2018):

Legend:
[1] = tested on: hyaluronidase Type IV-S, from bovine testes (Hyase); test: Dische's assay (Method II) of HA degradation by Hyase with inhibitors; format: biochemical
Procedure: Method II (Dische's assay; detection of uronic acid residues): Assays were performed by following the procedures described in Dische Z. [J. Biol. Chem., 1947, 167, p. 189-198] and Dische and Rothschild [Anal Biochem., 1967, 21(1), p. 125-30]. In these assays, molecules containing the uronic acid residues found in the precipitate formed upon CPC additions, are re-solubilized and products formed by -sulfuric acid hydrolysis of these fragments are detected by a spectrophotometric assay employing carbazole chromagen reagent. In addition, small residues degraded off the HA chains that have not precipitated with the addition of CPC, can be detected by the carbazole assay performed on the solution, so as to detect all of the uronic acid content.
Evaluation of HA degradation by this method was generally performed as follows:
20 μL of a NAC stock solution, and 20 μL of the stock solutions of the other inhibitors were used in the assay.
200 μL of the HA stock solution were placed in each tube, for achieving a 1 mg HA per tube.
Twenty (20) μL of hyase and 20 μL of NAC were combined and incubated for 2 hours. Then 200 μL of HA (1 mg) were added to each tube and the mixture was incubated at room temperature for 24 hours. Thereafter, the tubes were heated for 2 minutes in boiling water bath and 8 mL of doubled distilled water were added to the tubes as preparation for the Dische's assay.
As per Dische's Assay, 100 μL of 3N NaCl and 0.5 mL of 10% CPC (cetylpyridinium chloride) were thereafter added to each tube and the mixture was incubated at 37° C. until flocculation-turbidity (resulting from precipitation of HA+CPC) could be observed. The mixture was centrifuged for 10 minutes at 10,000 g at room temperature, and the supernatant was thereafter separated from the obtained pellet.
The pellet was dissolved in 1 ml of CaCl2, and the obtained solution was incubated at 37° C. until complete dissolution of the pellet is obtained. A 2:1 v/v ethanol/ether mixture (8 ml) was thereafter added, and the mixture was intensively stirred (by vortex) and kept at −20° C. overnight. The obtained pellet was collected following a centrifugation for 10 minutes at 10,000 g. Then, distilled water (1 mL) was added to solubilize the pellet, followed by addition of 0.2 ml Carbazole 1%. The mixture was stirred thoroughly, and concentrated sulfuric acid (6 mL) was thereafter added.
The samples were transferred into tight closed tubes, placed for 10 minutes in a boiling water bath, and was thereafter cooled in ice until it reached room temperature.
The pink-violet color developed by the chromogen was measured using a spectrophotometer at 527 nm.
Ditch assay, as described hereinabove (Method II) was performed while using the following Hyase inhibitors:
The experiment was run at room temperature (23° C.). Hyase and Inhibitors were incubated first for 2 hours prior to the addition of HA. Blank tubes included no substrate (HA) and Control tubes included no enzyme, no inhibitor and HA (200 μL). Tubes 5 and 6 contained HA and Hyase with no inhibitor. Standard Solutions with no enzyme and no inhibitor and HA 50 μL and 10 μL were also tested, for calibration. % HA cleaved denotes the weight percent of HA that was degraded. % HA residue denotes the weight percent of non-degraded HA, and represents the % of Hyase inhibition.

[2] = tested on: hyaluronidase Type IV-S, from bovine testes (Hyase); test: HA gelation consistency (Method III) in the presence of Hyase; format: biochemical; settings: for Consistency after 24 h incubation at 37° C.: HA 1% 2 mL
Procedure: Method III (Viscosity of HA): HA at low concentrations (e.g., 1%) in aqueous solution forms a viscous colloidal hydrogel solution, which yields semi-solid gel particles at room temperature and a solid gel at 4° C.
HA degradation was evaluated using Method III, as described hereinabove.
HA state of gelation was studied in the presence of NAC and various HA-degrading enzymes, using the following Stock solutions:
The tested enzyme (50 μL) was placed in a tube, NAC (50 μL of the Stock solution, final concentration of about 3.3%) was added and the mixture was incubated for 2 hours at room temperature (23° C.). Then, 2 ml of HA 1% were added to each tube and tubes were further incubated at room temperature for additional 24 hours.
In a second set of experiments, NAC (50 μL of the Stock solution) was added to a tube containing 2 ml of HA 1%; and the tubes were incubated for 2 hours at room temperature. Then, the HA-degrading enzyme was added and tubes were incubated at room temperature for additional 24 hours. In control tubes 9 and 10 (containing only HA), 50 μL of water were added to achieve the same volume as the other tested tubes.
In another set of experiments, the effect of NAC powder, (at a final concentration of 20%), on HA gelation in the presence of Hyase or Chondroitinase ABC was tested. HA (2 ml of 1%), and the tested enzyme were incubated with and without 400 mg of NAC powder, at 4° C. and at 37° C.
HA gelation in the presence of various concentrations of NAC and/or various concentrations of Hyase was further studies. […] The solutions were maintained for 24 hours at room temperature, and thereafter Hyase, at various concentrations, was added. Then the mixtures were incubated at room temperature. The enzyme was absent in the control tubes.
In another set of experiments, the effect of various NAC concentrations on gelation of HA 1% (2 mL in each tube) in the presence of Hyase (50 μL of Stock solution) following incubation at 37° C., was tested, using the same procedure as described hereinabove.

[3] = Solubility of NAC crystals in water; format: physicochemical
Procedure: The solubility of NAC crystals in water was measured for different NAC concentrations, at different temperatures.

CC(=O)N[C@@H](CS)C(=O)O [NAC, N-acetyl L-cysteine]
% HA degraded ([1]; 20 μL inhibitor stock incubated 2 h with 20 μL Hyase, then HA 200 μL, room temperature 24 h): 0%
inhibition of HA degradation ([1]; NAC final concentration of the incubate 2%, Tubes 11-12): completely inhibited HA degradation
% of inhibition of HA degradation ([1]; derived from Table 1): 100%
% HA intact (precipitated) ([1]; represents % of Hyase inhibition, 20 μL inhibitor, 20 μL Hyase, HA 200 μL, room temperature 24 h): 100%
NAC concentration that fails to inhibit HA degradation ([2]; HA 1%, Hyase 50 μL, 37° C. 24 h): lower than 1%
NAC concentration range with the best effect ([2]; HA 1%, Hyase 50 μL, at 37° C.): 4-16%
Consistency after 24 h incubation at 37° C. ([2]; NAC 0.25% (5 mg), Hyase 50 μL): Fluid liquid (for a fluid liquid were in the range of 1-500 mPa S)
Consistency after 24 h incubation at 37° C. ([2]; NAC 0.5% (10 mg), Hyase 50 μL): Fluid liquid (for a fluid liquid were in the range of 1-500 mPa S)
Consistency after 24 h incubation at 37° C. ([2]; NAC 1.0% (20 mg), Hyase 50 μL): Viscous liquid (for a viscous liquid in the range of 1-10 Pa S)
Consistency after 24 h incubation at 37° C. ([2]; NAC 2.0% (40 mg), Hyase 50 μL): Viscous liquid (for a viscous liquid in the range of 1-10 Pa S)
Consistency after 24 h incubation at 37° C. ([2]; NAC 4.0% (80 mg), Hyase 50 μL): Semisolid (for a semi-solid in the range of 50-70 Pa S)
Consistency after 24 h incubation at 37° C. ([2]; NAC 8% (160 mg), Hyase 50 μL): Semisolid (for a semi-solid in the range of 50-70 Pa S)
Consistency after 24 h incubation at 37° C. ([2]; NAC 10% (200 mg), Hyase 50 μL): Semisolid (for a semi-solid in the range of 50-70 Pa S)
Consistency after 24 h incubation at 37° C. ([2]; NAC 20% (400 mg), Hyase 50 μL): Fluid liquid (for a fluid liquid were in the range of 1-500 mPa S)
Consistency ([2]; Table 2: Hyase 50 μL + NAC 50 μL (400 mM stock, about 3.3%) 2 h at 23° C., then HA 1% 2 mL, 24 h room temperature): Solid (for a solid the results were in the range of 80-100 Pa S and higher)
Consistency ([2]; Table 3: NAC 50 μL added to HA 1% 2 mL first (0.5% NAC final), 2 h, then Hyase 50 μL, 24 h room temperature): Fluid Liquid
Consistency ([2]; Table 4: NAC 400 mg dry powder (20% final), HA 2 cc of 1%, Hyase 50 μL, 4° C.): Semisolid (for a semi-solid in the range of 50-70 Pa S)
Consistency ([2]; Table 4: NAC 400 mg dry powder (20% final), HA 2 cc of 1%, Hyase 50 μL, 37° C., cell wraps: Viscous liquid): Viscous
Consistency ([2]; Table 5: NAC 5% (2 mL), HA 40 mg dry powder, Hyase 50 μL, room temperature, cell wraps: Solid, no crystals): Solid, no
Consistency ([2]; Table 5: NAC 10% (2 mL), HA 40 mg dry powder, Hyase 50 μL, room temperature, cell wraps: Solid, no crystals): Solid, no
Clearance (solubility of NAC crystals in water) ([3]; NAC concentration 10%, at 4° C. (storage)): Clear
Clearance (solubility of NAC crystals in water) ([3]; NAC concentration 10%, at 23° C., room temperature): Clear
Clearance (solubility of NAC crystals in water) ([3]; NAC concentration 10%, at 34-37° C., skin and body temperature): Clear
Clearance (solubility of NAC crystals in water) ([3]; NAC concentration 12%, at 4° C. (storage)): Clear
Clearance (solubility of NAC crystals in water) ([3]; NAC concentration 12%, at 23° C., room temperature): Clear
Clearance (solubility of NAC crystals in water) ([3]; NAC concentration 12%, at 34-37° C., skin and body temperature): Clear
Clearance (solubility of NAC crystals in water) ([3]; NAC concentration 14%, at 4° C. (storage)): Clear
Clearance (solubility of NAC crystals in water) ([3]; NAC concentration 14%, at 23° C., room temperature): Clear
Clearance (solubility of NAC crystals in water) ([3]; NAC concentration 14%, at 34-37° C., skin and body temperature): Clear
Clearance (solubility of NAC crystals in water) ([3]; NAC concentration 16%, at 4° C. (storage), cell wraps: Minimal crystals appearance): Minimal crystals
Clearance (solubility of NAC crystals in water) ([3]; NAC concentration 16%, at 23° C., room temperature): Clear
Clearance (solubility of NAC crystals in water) ([3]; NAC concentration 16%, at 34-37° C., skin and body temperature): Clear
Clearance (solubility of NAC crystals in water) ([3]; NAC concentration 18%, at 4° C. (storage)): More crystals
Clearance (solubility of NAC crystals in water) ([3]; NAC concentration 18%, at 23° C., room temperature, cell wraps: Minimal crystals appearance): Minimal
Clearance (solubility of NAC crystals in water) ([3]; NAC concentration 18%, at 34-37° C., skin and body temperature): Clear
Clearance (solubility of NAC crystals in water) ([3]; NAC concentration 20%, at 4° C. (storage)): More crystals
Clearance (solubility of NAC crystals in water) ([3]; NAC concentration 20%, at 23° C., room temperature): More crystals
Clearance (solubility of NAC crystals in water) ([3]; NAC concentration 20%, at 34-37° C., skin and body temperature): Clear
NAC concentration completely soluble in water ([3]; at 23° C. and at lower temperatures): ≤ 15%
concentration at which NAC solubilization reaches saturation ([3]; at room temperature, presumed from crystals in the HA gel tubes): 20%
NAC concentration completely soluble in water ([3]; from 34° C. and up): ≥ 20%
